In ChEMBL document CHEMBL1201862, “PubChem BioAssay data set” (2004):
Activity calls are given as the source filed them.

Tests used:
[1] = inhibition of bursicon-driven LGR2 cAMP signaling – cell-based, HEK293, CRE-luciferase reporter, cherry pick, dose response (AID 743342); assay type: functional
[2] = blockade of melanocortin 4 receptor signaling – cell-based, plate reader, cherry pick, counter-screen for LGR2 antagonist project, dose response (AID 743444); assay type: functional;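 also: transfected HEK 293 cells stimulated with alpha-MSH peptide; potency of inhibitors of the alpha-MSH evoked signal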
[3] = target: T1, Corticotropin-releasing factor receptor 2/Corticotropin-releasing factor-binding protein (Homo sapiens, UniProt P24387+Q13324); experiment: Dose Response confirmation of uHTS hits for small molecule antagonists of the CRF-binding protein and CRF-R2 receptor complex.; assay type: functional; conditions: read-out: IC50_Mean
T1 sequence (Q13324 whole entry): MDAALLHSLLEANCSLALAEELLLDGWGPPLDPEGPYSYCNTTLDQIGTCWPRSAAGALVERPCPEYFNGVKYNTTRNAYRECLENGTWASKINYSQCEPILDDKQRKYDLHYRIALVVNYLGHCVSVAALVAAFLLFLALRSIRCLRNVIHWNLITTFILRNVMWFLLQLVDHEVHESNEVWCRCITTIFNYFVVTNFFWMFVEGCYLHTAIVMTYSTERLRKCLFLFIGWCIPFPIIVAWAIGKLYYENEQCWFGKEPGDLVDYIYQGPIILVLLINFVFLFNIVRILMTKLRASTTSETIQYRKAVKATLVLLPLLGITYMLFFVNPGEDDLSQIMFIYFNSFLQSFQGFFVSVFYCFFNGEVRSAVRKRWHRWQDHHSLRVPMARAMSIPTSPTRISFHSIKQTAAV
T1 sequence (P24387 whole entry): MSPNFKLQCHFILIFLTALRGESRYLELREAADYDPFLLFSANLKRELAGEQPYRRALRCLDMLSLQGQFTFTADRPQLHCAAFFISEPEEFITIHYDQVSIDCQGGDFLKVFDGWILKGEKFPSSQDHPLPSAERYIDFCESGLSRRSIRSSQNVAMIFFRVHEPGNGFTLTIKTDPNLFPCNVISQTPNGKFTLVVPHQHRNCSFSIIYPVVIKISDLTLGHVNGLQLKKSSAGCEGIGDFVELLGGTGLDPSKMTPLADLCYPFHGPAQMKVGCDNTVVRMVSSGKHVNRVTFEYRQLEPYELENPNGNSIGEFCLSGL

[4] = target: T1, Corticotropin-releasing factor receptor 2/Corticotropin-releasing factor-binding protein; experiment: activators of CRF receptor 2 with binding protein – uHTS hits, confirmation (AID 602473); assay type: functional; conditions: read-out: EC50_Mean
[5] = target: Disintegrin and metalloproteinase domain-containing protein 17 (Homo sapiens, UniProt P78536); experiment: exosite inhibitors of ADAM17, dose response, biochemical (AID 743260)
[6] = inhibition of ADAM10 peptide cleavage – biochemical, FRET peptide substrate, recombinant human ADAM10, selectivity assay for ADAM17 exosite inhibitor project, dose response (AID 743259);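 also: ADAM10 enzyme cleaving a FRET peptide substrate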
[7] = HGIII-sPLA2 enzyme inhibition potency – biochemical, QFRET, IC50, dose response (AID 743457);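 also: green fluorescence rise as the enzyme cleaves BODIPY PC-A2 in liposomes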
cells = assay type: functional, cell-based
[8] = target: Nuclear receptor subfamily 0 group B member 1 (Homo sapiens, UniProt P51843); assay type: functional, cell-based;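 also: HEK293T cells transfected with SF-1 and DAX-1 plus StAR promoter luciferase reporter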
[9] = target: Fructose-bisphosphate aldolase (Mycobacterium tuberculosis, UniProt P9WQA3); experiment: Fluorescence-based biochemical high throughput dose response assay for inhibitors of the fructose-bisphosphate aldolase (FBA) of M. tuberculosis.; assay type: functional
[10] = blockers of HIV-1 envelope-mediated cell-cell fusion – cherry-pick, dose response (AID 652057); assay type: functional, cell-based
[11] = blockers of HIV-1 ZM109 envelope-driven cell-cell fusion – HeLa effector, CEM target cells, luciferase, cherry-pick, dose response (AID 652058); assay type: functional, cell-based;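 also: luciferase signal from HIV-1 Env mediated cell-cell fusion of effector and target cells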
[12] = HIV-1 AD8 envelope cell-cell fusion blockers – cherry-pick, dose response (AID 652062); assay type: functional, cell-based;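 also: luciferase signal from cell-cell fusion driven by HIV-1 clade B AD8 Env; potency is for inhibitors of fusion seen as a drop in luminescence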

Chain of Nuclear receptor subfamily 0 group B member 1 (P51843 whole entry): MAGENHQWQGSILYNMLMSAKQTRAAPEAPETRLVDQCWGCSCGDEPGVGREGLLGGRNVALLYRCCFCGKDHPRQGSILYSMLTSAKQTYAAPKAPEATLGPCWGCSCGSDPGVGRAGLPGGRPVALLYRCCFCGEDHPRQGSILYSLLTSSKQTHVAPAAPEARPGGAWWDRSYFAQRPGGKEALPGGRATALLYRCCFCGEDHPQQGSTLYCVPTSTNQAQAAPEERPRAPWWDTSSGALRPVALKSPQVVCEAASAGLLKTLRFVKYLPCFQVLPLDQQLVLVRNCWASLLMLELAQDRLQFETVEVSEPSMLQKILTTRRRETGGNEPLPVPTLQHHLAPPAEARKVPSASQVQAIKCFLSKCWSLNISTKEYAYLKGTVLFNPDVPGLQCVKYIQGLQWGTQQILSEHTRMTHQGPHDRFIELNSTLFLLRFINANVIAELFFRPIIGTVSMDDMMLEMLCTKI
Chain of Disintegrin and metalloproteinase domain-containing protein 17 (P78536 whole entry, the tested form may be a part): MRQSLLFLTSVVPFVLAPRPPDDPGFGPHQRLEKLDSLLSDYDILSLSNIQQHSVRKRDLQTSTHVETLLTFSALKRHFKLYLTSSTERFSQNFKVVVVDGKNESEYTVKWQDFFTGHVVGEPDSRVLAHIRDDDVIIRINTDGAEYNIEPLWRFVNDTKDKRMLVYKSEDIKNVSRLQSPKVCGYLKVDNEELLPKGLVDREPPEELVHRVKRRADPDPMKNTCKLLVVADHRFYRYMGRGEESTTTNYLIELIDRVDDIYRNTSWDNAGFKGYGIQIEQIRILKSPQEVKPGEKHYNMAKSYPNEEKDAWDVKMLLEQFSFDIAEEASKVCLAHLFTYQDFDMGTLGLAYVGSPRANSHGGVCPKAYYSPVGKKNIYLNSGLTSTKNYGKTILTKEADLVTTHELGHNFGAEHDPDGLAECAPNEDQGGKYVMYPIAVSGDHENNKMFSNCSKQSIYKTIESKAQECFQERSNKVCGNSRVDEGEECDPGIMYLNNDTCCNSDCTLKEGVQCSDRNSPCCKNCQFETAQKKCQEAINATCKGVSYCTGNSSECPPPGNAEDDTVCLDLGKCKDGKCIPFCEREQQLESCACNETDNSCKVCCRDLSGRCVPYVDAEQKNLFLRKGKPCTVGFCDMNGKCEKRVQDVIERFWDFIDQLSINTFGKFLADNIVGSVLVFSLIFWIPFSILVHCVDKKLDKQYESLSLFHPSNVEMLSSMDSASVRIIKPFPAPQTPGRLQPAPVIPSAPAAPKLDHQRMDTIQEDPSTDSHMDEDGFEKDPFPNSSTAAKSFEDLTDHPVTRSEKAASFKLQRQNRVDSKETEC
Chain of Fructose-bisphosphate aldolase (P9WQA3 whole entry, the tested form may be a part): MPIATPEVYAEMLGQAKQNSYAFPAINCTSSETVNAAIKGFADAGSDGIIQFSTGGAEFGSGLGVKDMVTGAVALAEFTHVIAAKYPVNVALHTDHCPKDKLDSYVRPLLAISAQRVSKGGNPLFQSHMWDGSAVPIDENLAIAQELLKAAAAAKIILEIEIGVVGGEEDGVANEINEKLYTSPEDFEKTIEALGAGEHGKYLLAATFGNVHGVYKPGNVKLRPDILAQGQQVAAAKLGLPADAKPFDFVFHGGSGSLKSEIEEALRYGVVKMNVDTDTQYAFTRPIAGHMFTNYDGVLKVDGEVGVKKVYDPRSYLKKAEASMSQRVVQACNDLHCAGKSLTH

For C[C@H](CO)N1C[C@H](C)[C@H](CN(C)C(=O)Nc2cccc3ccccc23)OCCCC[C@H](C)Oc2ccc(NC(=O)NC3CCCCC3)cc2C1=O, which AC50 [1] is on record?
The AC50 was 4.13 µM (active).

What about the AC50 [2] of the same compound?
Its AC50 is 45.6 µM (active).

For Cc1cc2oc(=O)cc(-c3ccccc3)c2c(C)c1-c1ccc(O)cc1, which IC50 [3] is on record?
Its IC50 is > 47.1 µM (inactive).

What about the EC50 [4] of the same compound?
The EC50 was > 53 µM (inactive).

What about the IC50 [5] of the same compound?
Its IC50 is > 69.5 µM (inactive).

And the IC50 [6]?
The IC50 was > 69.5 µM (inactive).

With Cn1cc(Cl)c(C(=O)NN=C(S)Nc2cccc(Cl)c2)n1 as the compound, how does the IC50 [7] read?
Its IC50 is > 122 µM (inactive).

Which results are given for C/C(=N/NC(=O)c1ccoc1C)c1cccc(NC(=O)C(F)(F)F)c1?
IC50 (cells): > 67.5 µM (inactive); IC50 [8]: > 67.5 µM (inactive)

Which results are given for Cc1ccc2nc(NC(=O)COC(=O)c3cccnc3)sc2c1?
IC50 (cells): > 67.5 µM (inactive); IC50 [8]: > 67.5 µM (inactive)

With COCCCNC(=S)NCCCNc1nc2cc3c(cc2cc1C#N)OCO3 as the compound, how does the IC50 [9] read?
Its IC50 is 1.2 µM (active).

Which results are given for C[C@@H]1CN([C@@H](C)CO)C(=O)Cc2cc(NS(=O)(=O)c3cccs3)ccc2O[C@H]1CN(C)Cc1ccc(Cl)c(Cl)c1?
AC50 [10]: 9.27 µM (active); AC50 [11]: < 0.26 µM (active); AC50 [12]: 0.486 µM (active)
